Consider eleven substances from patent publication US20040235070A1, “Immune reactivity to expressed activated oncogenes for diagnosis and treatment of malignancy” (Washington Research Foundation, priority 1990, published 2004).

Assay [1] has as its system bcr3-abl2 peptide-specific CD4^+ T cell clones. As to the kind of experiment: Proliferative assay of bcr3-abl2 peptide-specific CD4+ T cell clones ([3H] thymidine incorporation). The format is cell-based, BALB/c mice. The conditions noted are these: for [^3H] Thymidine Incorporation (c.p.m.): peptide 5 μg/ml, Table 2; for [^3H] Thymidine Incorporation (c.p.m.) / [^3H] Thymidine Incorporation (c.p.m.) after Stimulation with bcr-abl 12 peptide/proteins (μg/ml): 96-hour culture; for [^3H] Thymidine Incorporation (c.p.m.) after Stimulation with bcr3-abl2 peptide (5 μg/ml): peptides of varying lengths 5 μg/ml, 96 hour culture, Table 4; for [^3H] Thymidine Incorporation (c.p.m.) after Stimulation with bcr-abl 12 peptide/proteins (μg/ml): Table 5. How it is done:
Mice (female BALB/c and C57BL/6 (B6), 6 to 8 weeks old; Jackson Laboratories, Bar Harbor, Me.) were inoculated twice at 2-week intervals by subcutaneous injection with Complete Freund's Adjuvant (Sigma Chemical Co., St. Louis, Mo.) alone or emulsified with bcr3-abl2 peptide (100 μg). Ten days after the final immunization, single cell suspensions of draining lymph nodes and spleens were prepared in medium consisting of 1:1 mixture of RPMI 1640 (Gibco Laboratories, Inc., Grand Island, N.Y.) and EHAA (Biofluids, Inc., Rockville, Md.) with 2.5×10^−5 M 2-ME, 200 U/ml penicillin, 200 U/ml streptomycin, 10 mM L-glutamine and 10% fetal calf serum. For proliferative assays, lymphocytes were cultured in 96-well plates at 2×10^5 cells per well with 4×10^5 irradiated syngeneic spleen cells (3,000 rad) and designated (total volume of 200 μl per well). Plates were incubated in a humidified atmosphere under 5% CO2 tension at 37° C. for 72 hours, and then pulsed for 18 hours with […] of [^3H]-thumidine per well. Proliferative responses of cloned T cells utilized 2×10^4 cells per well with 5×10^5 irradiated syngeneic spleen cells (3,000 rad) and designated peptide.
Lymphocytes from the draining lymph nodes of mice immunized with bcr3-abl2 peptide were cultured in 24-well culture plates at 4×10^6 cells per well with 2×10^6 irradiated syngeneic spleen cells and bcr3-abl2 peptide at 25 μg/ml (total volume 2 ml). The plates were cultured in a humidified atmosphere under 5% CO2 tension at 37° C. for 5 days then split 1:2. After 10 days, lymphocytes were restimulated at 1×10^6 lymphocytes per well in 24-well culture plates with 5×10^6 irradiated syngeneic spleen cells and peptide (25 μg/ml). Two days after the second in vitro stimulation, T cells were-plated at 0.5 cells per well in 96-well flat-bottom plates with 1×10^6 irradiated syngeneic spleen cells and rIL-2 (50 U/ml). Derived T cell clones were maintained by periodic stimulation with peptide (1 μg/ml) plus irradiated syngeneic spleen cells followed by expansion with rIL-2 (10 U/ml) every 2 weeks. T cell clones were stained with FITC-conjugated anti-Thy 1.2 (1%), or FITC-conjugated anti-Lyt2 (2%), or PE-conjugated anti-L3T4 (3%) mAbs (Becton Dickinson Immunocytochemistry Systems, Mountain View, Calif.) at 4° C. for 45 minutes.
A general note: Uptake of a labelled nucleoside into DNA is a usual measure of proliferation.

For assay [2], the system named is spleen cells from mice immunized with p54-66[L61]. As to the kind of experiment: Proliferative response of spleen cells from mice immunized with p54-66[L61] ras peptide. The format is cell-based, C3H/HeN mice. The conditions noted are these: lymphocytes from mice immunized with p54-66[L61]; FIG. 4. How it is done:
This peptide is denoted as p54-66[L61] or [L61]. C3H/HeN mice were immunized twice subcutaneously at two week intervals with Ribi adjuvant alone or adjuvant emulsified with p54-66[L61] ras peptide (100 μg). Two weeks after the final immunization, spleen cells from mice injected with adjuvant alone (open bar) or adjuvant plus p54-66[L61] ras peptide (black bar) were harvested and tested in vitro for proliferative response to the indicated p54-66 ras peptide (100 μg/ml). The peptide containing the substitution of lysine (K) for glutamine at position 61 is denoted as [K61]. The data represent the mean of triplicate determinations of the c.p.m. of incorporated ^3HTdR±S.D.

For assay [3], the system named is lymphocytes from mice immunized with the Arg-12 peptide. As to the kind of experiment: Proliferation assay of lymph node lymphocytes from mice immunized with ras Arg-12 peptide. The conditions noted are these: lymphocytes from C57BL/6 mice immunized with a single dose of Arg-12 peptide; FIG. 1. The format is cell-based. How it is done:
FIG. 1 graphically illustrates that specific T cell responses to point-mutated ras peptide can be generated by in vivo priming on day 0 with 50 μg of a peptide of 12 amino acid length constructed identically to murine ras-p21 (amino acids 5-16) but with the substitution of arginine for the glycine normally found at position 12 (i.e., position 12 of ras-p21 but position 8 of the peptide). This peptide is denoted as ras p5-16[R12] or as ras-R12. Mice were immunized with ras-R12 peptide plus adjuvant or with adjuvant alone. […]
Lymphocytes obtained from immunized mice were suspended in culture medium (consisting of RPMI 1640 Gibco supplemented with 10% fetal calf serum, 2 mM L-glutamine, 100 U/ml streptomycin, 100 U/ml penicillin and 2.5×10^−5 M 2-mercaptoethanol) and were plated in 96-well flat bottom microtiter plates (Costar Co., Cambridge, Mass.) at 1×10^5 cells per well. […] Lymphocytes from individual wells were collected onto filter paper disks using a multi-channel harvester then transferred to scintillation fluid in individual counting tubes. β emission was measured using a Beckmann liquid scintillation spectrophotometer. […]

Take “A F H G D A Q A L Q R P V A (AFHGDAQALQRPVA) [BCRI-abl2, 14 mer of p185 bcr-abl joining region, reference compound]”: the “[^3H] Thymidine Incorporation (c.p.m.)” value in assay [1] (T cell clone 1D2) worked out at 315 c.p.m; in assay [1] (T cell clone 2B12), 385 c.p.m; in assay [1] (T cell clone 2D4), 147 c.p.m; in assay [1] (T cell clone 2E3), 461 c.p.m; in assay [1] (T cell clone 2E10) it was 137 c.p.m; in assay [1] (T cell clone 3B7) it was 277 c.p.m. Besides, the results for the “[^3H] Thymidine Incorporation (c.p.m.)” value in assay [1] (T cell clone 3E11), in assay [1] (T cell clone 3G2) and in assay [1] (T cell clone 3G3) were 398 c.p.m, 583 c.p.m and 351 c.p.m, respectively.

As to “G F K Q S S K A L Q R P V A (GFKQSSKALQRPVA) [bcr3-abl2 14-mer peptide]”, the “[^3H] Thymidine Incorporation (c.p.m.) after Stimulation with bcr3-abl2 peptide (5 μg/ml)” value in assay [1] (T cell clone 1D2) is given as 238,297 c.p.m; in assay [1] (T cell clone 2E10), 170,085 c.p.m. The “[^3H] Thymidine Incorporation (c.p.m.) after Stimulation with bcr-abl 12 peptide/proteins (μg/ml)” value in assay [1] (T cell clone 2E10, peptide/protein 0.04 μg/ml) is on record as 6,303 c.p.m; in assay [1] (T cell clone 2E10, peptide/protein 0.2 μg/ml), 54,896 c.p.m; in assay [1] (T cell clone 2E10, peptide/protein 1 μg/ml), 92,970 c.p.m.

With “G F K Q S S K A L Q R P V A S D (GFKQSSKALQRPVASD) [bcr3-abl2 16-mer]”, the entries for the “[^3H] Thymidine Incorporation (c.p.m.) after Stimulation with bcr3-abl2 peptide (5 μg/ml)” value in assay [1] (T cell clone 1D2) and in assay [1] (T cell clone 2E10) were 108,309 c.p.m and 139,083 c.p.m, respectively.

Take “Gln-61: p54-66 ras peptide with the normal glutamine at position 61 (DILDTAGQEEYSA; UniProt P01112 54-66, looked up, fragment)”: the proliferation in vitro result in assay [2] is on record as “not”.

With “H S A T G F K Q S S K A L Q R P V A (HSATGFKQSSKALQRPVA) [bcr3-abl2 18-mer]”, the “[^3H] Thymidine Incorporation (c.p.m.) after Stimulation with bcr3-abl2 peptide (5 μg/ml)” value is reported as 150,309 c.p.m in assay [1] (T cell clone 1D2) and 224,674 c.p.m in assay [1] (T cell clone 2E10).

Take “I V H S A T G F K Q S S (IVHSATGFKQSS) [bcr3, reference compound]”: the “[^3H] Thymidine Incorporation (c.p.m.)” value in assay [1] (T cell clone 1D2) came to 294 c.p.m; in assay [1] (T cell clone 2B12), 461 c.p.m; in assay [1] (T cell clone 2D4) it was 133 c.p.m; in assay [1] (T cell clone 2E3), 193 c.p.m; in assay [1] (T cell clone 2E10), 667 c.p.m; in assay [1] (T cell clone 3B7), 462 c.p.m. The “[^3H] Thymidine Incorporation (c.p.m.)” value in assay [1] (T cell clone 3E11) is 305 c.p.m; in assay [1] (T cell clone 3G2) it was 461 c.p.m; in assay [1] (T cell clone 3G3), 190 c.p.m. Moreover, in assay [1] (proliferative assay with irradiated syngeneic APC), the “response of bcr3-abl2 peptide-specific T cell clones (in words)” value is on record as “failed to respond”.

“IVHSATGFKQSSKALQRPVASD (IVHSATGFKQSSKALQRPVASD) [bcr3-abl2 22-mer]”: the “[^3H] Thymidine Incorporation (c.p.m.) after Stimulation with bcr3-abl2 peptide (5 μg/ml)” value was 21,208 c.p.m in assay [1] (T cell clone 1D2) and 29,509 c.p.m in assay [1] (T cell clone 2E10).

As to “KLVVVGARGVGK [Arg-12 peptide, residues 5-16 of ras p21 with arginine for glycine at position 12]”, in assay [3], the “proliferative response in vitro” value is “proliferate specifically”.

In the case of “L T I N K E E A L Q R P (LTINKEEALQRP) [bcr2-abl2, 12 mer of p210 joining region, bcr exon 2 fused to c-abl exon 2, reference compound]”, the “[^3H] Thymidine Incorporation (c.p.m.)” value amounted to 274 c.p.m in assay [1] (T cell clone 1D2); 341 c.p.m in assay [1] (T cell clone 2B12); 143 c.p.m in assay [1] (T cell clone 2D4); 402 c.p.m in assay [1] (T cell clone 2E3); 287 c.p.m in assay [1] (T cell clone 2E10); 349 c.p.m in assay [1] (T cell clone 3B7). Besides, the “[^3H] Thymidine Incorporation (c.p.m.)” value in assay [1] (T cell clone 3E11) stood at 299 c.p.m; in assay [1] (T cell clone 3G2) it was 478 c.p.m; in assay [1] (T cell clone 3G3), 217 c.p.m.

“Leu-61 peptide: 13 residues 54-66 of ras p21 with leucine for glutamine at position 61 (DILDTAGLEEYSA; UniProt P01112 54-66, looked up, fragment Q61L)”: the proliferation in vitro result in assay [2] is “proliferate in vitro”.

In the case of “Lys-61: p54-66 ras peptide with lysine for glutamine at position 61 (DILDTAGKEEYSA; UniProt P01112 54-66, looked up, fragment Q61K)”, the proliferation in vitro entry in assay [2] was “not”.
